Values of other authors in patent US6756428B2, “Degradable plastics possessing a microbe-inhibiting quality” (Seefar Technologies, Incorporated, priority 1999, dated 2004).
≈ marks a conversion by molar mass, not a printed value. Read-outs that look alike come from different tables or passages of the source.

Experiments:
[1] = tested on: Staphylococcus aureus bacteria
[2] = tested on: fungus Aspergillus niger
[3] = tested on: Pseudomonas aeruginosa bacteria; settings: bacterium P aeruginosa
[4] = tested on: dogs

Cc1ccc(S(=O)(=O)C(I)I)cc1 [DIMTS, diiodomethyl-p-tolylsulphone]
MIC ([1]; against Staphylococcus aureus bacteria): about 50 mg/L | MIC ([2]; against the fungus Aspergillus niger): about 5 mg/L | solubility in acetone (acetone, 25° C.): 350 mg/mL (≈ 829 mM) | solubility in ethanol (25° C.): 20 mg/mL (≈ 47.4 mM) | solubility in water (25° C.): 0.0001 mg/mL (≈ 0.000237 mM)

Oc1cc(Cl)ccc1Oc1ccc(Cl)cc1Cl [triclosan, 2,4,4″-trichloro-2-hydroxydiphenylether]
MIC ([1]; against S. aureus): about 0.01 ppm | MIC ([2]; against A. niger): about 100 ppm | MIC [3]: about 100 ppm | solubility in dilute alkali solution (dilute alkali solution): sparingly soluble | solubility in ethanol: soluble | solubility in water: insoluble | LD50 oral toxicity [4]: > 5000 mg/kg
